One test deals with T1, FKBP52 (Homo sapiens, UniProt Q02790).
T1 construct: Purified FK1-domains of FKBP51WT (4.5 nM) with F4 (3 nM), FKBP52WT (400 nM) with F2 (20 nM); implied by Ni-NTA purification) (N); made in house; host or cells: E. coli BL21(DE3)pLysS
T1 sequence (Q02790 50-138 limits assumed): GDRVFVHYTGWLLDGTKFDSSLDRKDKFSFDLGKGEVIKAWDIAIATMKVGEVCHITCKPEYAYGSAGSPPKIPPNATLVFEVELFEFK
Put plainly: Fluorescence polarization binding assay, FK1-domain of FKBP52WT with tracer F2 (selectivity FKBP51 vs. FKBP52). The settings on record: selectivity factor over FKBP52. The method, boiled down:
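Compounds titrated against FK1 domain of FKBP52 WT with fluorescent tracer F2, in duplicate; competition curves fitted to four-parameter logistic for IC50. Ki derived from exact competitive-binding equation using tracer Kd; selectivity expressed as Ki(FKBP51)/Ki(FKBP52).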
In general terms: Polarisation of emitted light reports the rotation of a fluorescent probe.

The target in a further test is T2, FKBP51 (Homo sapiens, UniProt Q13451).
T2 sequence (Q13451 42-130 limits assumed): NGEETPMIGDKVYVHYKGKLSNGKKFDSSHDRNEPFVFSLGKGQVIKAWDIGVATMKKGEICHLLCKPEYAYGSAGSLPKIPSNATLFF
Kind of test: Fluorescence polarization binding assay, FK1-domain of FKBP51WT with tracer F4. Also noted: Purified FK1-domains of FKBP51WT (4.5 nM) with F4 (3 nM), FKBP52WT (400 nM) with F2 (20 nM); made in house; host or cells: E. coli BL21(DE3)pLysS. The settings on record: read-out: Affinity(Ki) for FKBP51. The method, boiled down:
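Competitive fluorescence polarization with tracer F4 and FKBP51 FK1 domain (wild type), compounds titrated by serial dilution from DMSO stock, run in duplicate. IC50 from four-parameter logistic fit; inhibition constants from an exact competitive-binding equation using tracer and inhibitor Kd values.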

The mark [1] stands for this setting: FKBP52WT (400 nM) with F2 (20 nM), A series.
Where [2] appears, read: FK1-domain of FKBP51WT (4.5 nM) with F4 (3 nM), A series.

Like-named read-outs stand apart in the source and are kept apart here.

In the case of `COc1cc([C@@H](C(=O)N2CCCC[C@H]2C(=O)N[C@@H](Cc2c[nH]cn2)C(N)=O)C2CCCCC2)cc(OC)c1OC` [Compound B35, (S)-N-((S)-1-amino-3-(1H-imidazol-4-yl)-1-oxopropan-2-yl)-1-((S)-2-cyclohexyl-2-(3,4,5-trimethoxyphenyl)acetyl)piperidine-2-carboxamide], on FKBP52 (compounds B01-C25), the “Ki(FKBP51)/Ki(FKBP52)” value is on record as “+ (>5 +)”. Further, the inhibition constant Ki at FKBP51 (compounds B01-C25) fell in the range of 10 to 50 µM.

`COC(=O)[C@@H]1CCCCN1C(=O)[C@H](c1cc(OC)c(OC)c(OC)c1)C1CCCCC1` [Compound C01, (S)-methyl 1-((S)-2-cyclohexyl-2-(3,4,5-trimethoxyphenyl)acetyl)piperidine-2-carboxylate]: the “Ki(FKBP51)/Ki(FKBP52)” value at FKBP52 (compounds B01-C25) is given as “++ (>50 ++)”. Further, the Ki on FKBP51 (compounds B01-C25) was in the range of 1 to 10 µM.

In the case of `CCOC(=O)[C@@H]1CCCCN1C(=O)[C@H](c1cc(OC)c(OC)c(OC)c1)C1CCCCC1` [Compound C02, (S)-ethyl 1-((S)-2-cyclohexyl-2-(3,4,5-trimethoxyphenyl)acetyl)piperidine-2-carboxylate], the “Ki(FKBP51)/Ki(FKBP52)” value at FKBP52 (compounds B01-C25) was “++ (>50 ++)”. Moreover, the Ki at FKBP51 (compounds B01-C25) lay in the range of 1 to 10 µM.

Regarding `CCCOC(=O)[C@@H]1CCCCN1C(=O)[C@H](c1cc(OC)c(OC)c(OC)c1)C1CCCCC1` [Compound C03, (S)-propyl 1-((S)-2-cyclohexyl-2-(3,4,5-trimethoxyphenyl)acetyl)piperidine-2-carboxylate], the “Ki(FKBP51)/Ki(FKBP52)” value at FKBP52 (compounds B01-C25) was “+++ (>500 +++)”. The Ki on FKBP51 (compounds B01-C25) lay within 1 to 10 µM.

As to `COc1cc([C@@H](C(=O)N2CCCC[C@H]2C(=O)OC(C)C)C2CCCCC2)cc(OC)c1OC` [Compound C04, (S)-isopropyl 1-((S)-2-cyclohexyl-2-(3,4,5-trimethoxyphenyl)acetyl)piperidine-2-carboxylate], the “Ki(FKBP51)/Ki(FKBP52)” value at FKBP52 (compounds B01-C25) is listed as “+++ (>500 +++)”. For the same compound, the Ki at FKBP51 (compounds B01-C25) lay within 0.1 to 1 µM.

Consider `CCNC(=O)[C@@H]1CCCCN1C(=O)[C@H](c1cc(OC)c(OC)c(OC)c1)C1CCCCC1` [Compound C05, (S)-1-((S)-2-cyclohexyl-2-(3,4,5-trimethoxyphenyl)acetyl)-N-ethylpiperidine-2-carboxamide], for which, at FKBP52 (compounds B01-C25), the “Ki(FKBP51)/Ki(FKBP52)” value is recorded as “++ (>50 ++)”. Moreover, the Ki at FKBP51 (compounds B01-C25) was in the range of 10 to 50 µM.

Consider `COc1cc([C@@H](C(=O)N2CCCC[C@H]2C(=O)O)C2CCCCC2)cc(OC)c1OC` [Compound C06, (S)-1-((S)-2-cyclohexyl-2-(3,4,5-trimethoxyphenyl)acetyl)piperidine-2-carboxylic acid], for which the “Ki(FKBP51)/Ki(FKBP52)” value on FKBP52 (compounds B01-C25) is reported as “+ (>5 +)”. Besides, the Ki at FKBP51 (compounds B01-C25) was 10 to 50 µM.

With `CC[C@H](C)OC(=O)[C@@H]1CCCCN1C(=O)[C@H](c1cc(OC)c(OC)c(OC)c1)C1CCCCC1` [Compound C07, (S)-(S)-sec-butyl-1-((S)-2-cyclohexyl-2-(3,4,5-trimethoxyphenyl)acetyl) piperidine-2-carboxylate], the “Ki(FKBP51)/Ki(FKBP52)” value at FKBP52 (compounds B01-C25) is reported as “++ (>50 ++)”. In addition, the Ki on FKBP51 (compounds B01-C25) lay in the range of 10 to 50 µM.

For the compound `CCC(CC)OC(=O)[C@@H]1CCCCN1C(=O)[C@H](c1cc(OC)c(OC)c(OC)c1)C1CCCCC1` [Compound C09, (S)-pentan-3-yl-1-((S)-2-cyclohexyl-2-(3,4,5-trimethoxyphenyl)acetyl)piperidine-2-carboxylate], on FKBP52 (compounds B01-C25), the “Ki(FKBP51)/Ki(FKBP52)” value is “++ (>50 ++)”. Moreover, the Ki on FKBP51 (compounds B01-C25) lay within 10 to 50 µM.

As for `COc1cc([C@@H](C(=O)N2CCCC[C@H]2C(=O)OC(C)(C)C)C2CCCCC2)cc(OC)c1OC` [Compound C10, (S)-tert-butyl-1-((S)-2-cyclohexyl-2-(3,4,5-trimethoxyphenyl)acetyl)piperidine-2-carboxylate], the “Ki(FKBP51)/Ki(FKBP52)” value at FKBP52 (compounds B01-C25) is recorded as “+++ (>500 +++)”. On FKBP51 (compounds B01-C25), the Ki is 1 to 10 µM.

With `COc1cc([C@@H](C(=O)N2CCCC[C@H]2C(=O)OC2(C)CCCC2)C2CCCCC2)cc(OC)c1OC` [Compound C11, (S)-1-methylcyclopentyl-1-((S)-2-cyclohexyl-2-(3,4,5-trimethoxyphenyl)acetyl) piperidine-2-carboxylate], the “Ki(FKBP51)/Ki(FKBP52)” value at FKBP52 (compounds B01-C25) is “+++ (>500 +++)”. In addition, the Ki on FKBP51 (compounds B01-C25) was 1 to 10 µM.

With `COc1cc([C@@H](C(=O)N2CCCC[C@H]2C(=O)OC2CCOCC2)C2CCCCC2)cc(OC)c1OC` [Compound C12, (S)-tetrahydro-2H-pyran-4-yl-1-((S)-2-cyclohexyl-2-(3,4,5-trimethoxyphenyl)acetyl)piperidine-2-carboxylate], the “Ki(FKBP51)/Ki(FKBP52)” value on FKBP52 (compounds B01-C25) was “+++ (>500 +++)”. For the same compound, the Ki at FKBP51 (compounds B01-C25) lay within 1 to 10 µM.

With `COc1cc([C@@H](C(=O)N2CCCC[C@H]2C(=O)OC2CCCC2)C2CCCCC2)cc(OC)c1OC` [Compound C13, (S)-cyclopentyl-1-((S)-2-cyclohexyl-2-(3,4,5-trimethoxyphenyl)acetyl)piperidine-2-carboxylate], the “Ki(FKBP51)/Ki(FKBP52)” value at FKBP52 (compounds B01-C25) is “+++ (>500 +++)”. For the same compound, at FKBP51 (compounds B01-C25), the inhibition constant Ki is 1 to 10 µM.

For the compound `COc1cc([C@@H](C(=O)N2CCCC[C@H]2C(=O)OC2CC=CC2)C2CCCCC2)cc(OC)c1OC` [Compound C14, (S)-cyclopent-3-en-1-yl-1-((S)-2-cyclohexyl-2-(3,4,5-trimethoxyphenyl)acetyl) piperidine-2-carboxylate], the “Ki(FKBP51)/Ki(FKBP52)” value on FKBP52 (compounds B01-C25) is listed as “+++ (>500 +++)”. Also, at FKBP51 (compounds B01-C25), the Ki lay in the range of 1 to 10 µM.

Consider `COc1cc([C@@H](C(=O)N2CCCC[C@H]2C(=O)OC2CCCCCC2)C2CCCCC2)cc(OC)c1OC` [Compound C16, (S)-cycloheptyl-1-((S)-2-cyclohexyl-2-(3,4,5-trimethoxyphenyl)acetyl)piperidine-2-carboxylate], for which the “Ki(FKBP51)/Ki(FKBP52)” value at FKBP52 (compounds B01-C25) is “++ (>50 ++)”. The Ki on FKBP51 (compounds B01-C25) lay in the range of 10 to 50 µM.

Consider `C=CCOC(=O)[C@@H]1CCCCN1C(=O)[C@H](c1cc(OC)c(OC)c(OC)c1)C1CCCCC1` [Compound C17, (S)-allyl-1-((S)-2-cyclohexyl-2-(3,4,5-trimethoxyphenyl)acetyl)piperidine-2-carboxylate], for which the “Ki(FKBP51)/Ki(FKBP52)” value at FKBP52 (compounds B01-C25) is reported as “++ (>50 ++)”. Further, the inhibitory constant (Ki) at FKBP51 (compounds B01-C25) is 10 to 50 µM.

`COCCOC(=O)[C@@H]1CCCCN1C(=O)[C@H](c1cc(OC)c(OC)c(OC)c1)C1CCCCC1` [Compound C18, (S)-2-methoxyethyl-1-((S)-2-cyclohexyl-2-(3,4,5-trimethoxyphenyl)acetyl) piperidine-2-carboxylate]: the “Ki(FKBP51)/Ki(FKBP52)” value at FKBP52 (compounds B01-C25) is “++ (>50 ++)”. At FKBP51 (compounds B01-C25), the Ki lay within 1 to 10 µM.

`COc1cc([C@@H](C(=O)N2CCCC[C@H]2C(=O)OCCOCc2ccccc2)C2CCCCC2)cc(OC)c1OC` [Compound C19, (S)-2-(benzyloxy)ethyl-1-((S)-2-cyclohexyl-2-(3,4,5-trimethoxyphenyl)acetyl) piperidine-2-carboxylate]: the “Ki(FKBP51)/Ki(FKBP52)” value at FKBP52 (compounds B01-C25) was “++ (>50 ++)”. Also, the Ki on FKBP51 (compounds B01-C25) was 1 to 10 µM.

For the compound `COc1cc([C@@H](C(=O)N2CCCC[C@H]2C(=O)OCCO)C2CCCCC2)cc(OC)c1OC` [Compound C20, (S)-2-hydroxyethyl-1-((S)-2-cyclohexyl-2-(3,4,5-trimethoxyphenyl)acetyl)piperidine-2-carboxylate], the “Ki(FKBP51)/Ki(FKBP52)” value at FKBP52 (compounds B01-C25) is reported as “+++ (>500 +++)”. Also, at FKBP51 (compounds B01-C25), the Ki was 1 to 10 µM.

Turning to `COc1cc([C@@H](C(=O)N2CCCC[C@H]2C(=O)OCCCOCc2ccccc2)C2CCCCC2)cc(OC)c1OC` [Compound C21, (S)-3-(benzyloxy)propyl-1-((S)-2-cyclohexyl-2-(3,4,5-trimethoxyphenyl)acetyl) piperidine-2-carboxylate], the “Ki(FKBP51)/Ki(FKBP52)” value on FKBP52 (compounds B01-C25) is listed as “++ (>50 ++)”. Also, at FKBP51 (compounds B01-C25), the Ki lay within 1 to 10 µM.

Regarding `COCCCCOC(=O)[C@@H]1CCCCN1C(=O)[C@H](c1cc(OC)c(OC)c(OC)c1)C1CCCCC1` [Compound C23, (S)-4-methoxybutyl-1-((S)-2-cyclohexyl-2-(3,4,5-trimethoxyphenyl)acetyl) piperidine-2-carboxylate], the “Ki(FKBP51)/Ki(FKBP52)” value on FKBP52 (compounds B01-C25) was “+++ (>500 +++)”. For the same compound, the Ki at FKBP51 (compounds B01-C25) lay in the range of 1 to 10 µM.

As to `COc1cc([C@@H](C(=O)N2CCCC[C@H]2C(=O)O[C@H](C)COCc2ccccc2)C2CCCCC2)cc(OC)c1OC` [Compound C24], the “Ki(FKBP51)/Ki(FKBP52)” value at FKBP52 (compounds B01-C25) is given as “+++ (>500 +++)”. Further, the Ki on FKBP51 (compounds B01-C25) lay in the range of 1 to 10 µM.

On to `C=CC[C@H](C(=O)N1CCCC[C@H]1C(=O)O[C@H](CCc1ccc(OC)c(OC)c1)c1cccc(OCC(=O)O)c1)c1cc(OC)c(OC)c(OC)c1` [Reference A01, 2-(3-((R)-3-(3,4-Dimethoxyphenyl)-1-(((S)-1-((S)-2-(3,4,5-trimethoxyphenyl)pent-4-enoyl)piperidine-2-carbonyl)oxy)propyl)phenoxy)acetic acid], for which the “Ki(FKBP51)/Ki(FKBP52)” value at FKBP52 (setting [1]) is recorded as “not selective (<5 not selective)”. At FKBP51 (setting [2]), the Ki fell in the range of 10 to 50 µM.

For `COc1ccc(CC[C@@H](OC(=O)[C@@H]2CCCCN2C(=O)[C@@H](CC2CC2)c2cc(OC)c(OC)c(OC)c2)c2cccc(OCC(=O)O)c2)cc1OC` [Reference A07, 2-(3-((R)-1-(((S)-1-((S)-3-cyclopropyl-2-(3,4,5-trimethoxyphenyl)propanoyl)piperidine-2-carbonyl)oxy)-3-(3,4-dimethoxyphenyl)propyl)phenoxy)acetic acid], the “Ki(FKBP51)/Ki(FKBP52)” value at FKBP52 (setting [1]) is “not selective (<5 not selective)”. Further, the Ki on FKBP51 (setting [2]) was in the range of 10 to 50 µM.

Broadly, the Ki is the equilibrium dissociation constant of an inhibitor or competing ligand from its target.
